Assay results published in article PMC6061170, “Synthesis and biological investigations of 3β-aminotropane arylamide derivatives with atypical antipsychotic profile” (Medicinal Chemistry Research, 2018).
Read-outs that look alike come from different tables or passages of the source.

Assays:
[1] = target: T1, serotonin 5-HT2A receptors (Rattus norvegicus, UniProt P14842); set-up: method as in Słowiński et al. 2011, 2013; Stefanowicz et al. 2016; details: earlier lead structures, Fig. 1/Fig. 2; ref Słowiński et al. 2011, 2013; Stefanowicz et al. 2016; cited from earlier work
T1 construct: from tissue; host or cells: rat brain tissues

CD-1 mice [2] = experiment: d-Amphetamine-induced hyperlocomotor activity
CD-1 mice [3] = experiment: Spontaneous locomotor activity; type: in vivo
CD-1 mice [4] = experiment: MK-801-induced hyperlocomotor activity
Albino Swiss mice [5] = experiment: Four-plate test
[6] = target: T1, serotonin 5-HT2A receptors; experiment: Radioligand binding assay, 5-HT2A receptors; details: for IC50: read-out: 5-HT2A IC50 [nM] ± SEM
[7] = target: T2, serotonin 5-HT1A receptors (Rattus norvegicus, UniProt P19327); experiment: Radioligand binding assay, 5-HT1A receptors
T2 construct: from tissue; host or cells: rat brain tissues
T2 sequence (P19327 1-422): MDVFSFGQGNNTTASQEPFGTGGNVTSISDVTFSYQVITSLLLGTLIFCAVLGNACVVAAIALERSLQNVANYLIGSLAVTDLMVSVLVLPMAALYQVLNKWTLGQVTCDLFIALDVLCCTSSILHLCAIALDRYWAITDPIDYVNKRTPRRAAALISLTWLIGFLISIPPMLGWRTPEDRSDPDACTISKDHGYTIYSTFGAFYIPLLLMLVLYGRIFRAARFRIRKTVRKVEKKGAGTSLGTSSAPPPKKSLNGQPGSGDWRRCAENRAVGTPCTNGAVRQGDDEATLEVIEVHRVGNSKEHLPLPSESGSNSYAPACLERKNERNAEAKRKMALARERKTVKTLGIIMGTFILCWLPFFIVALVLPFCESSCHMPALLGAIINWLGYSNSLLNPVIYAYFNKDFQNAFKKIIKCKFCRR
Experimental: All compounds were tested for their affinities for 5-HT1A, 5-HT2A, and D2 receptors according to previously described procedures (Stefanowicz et al. [2016]).
Competition binding studies were performed according to a previously described procedure in rat brain tissues (Stefanowicz et al. [2016]).

Albino Swiss mice [8] = experiment: Forced swim test; details: for Immobility time (s) Mean ± SEM: last 4 min of session
dopamine D2 receptors [9] = target: T3, dopamine D2 receptors (Rattus norvegicus, UniProt P61169); experiment: Radioligand binding assay, D2 receptors; details: for IC50: read-out: D2 IC50 [nM] ± SEM
[10] = target: T2, serotonin 5-HT1A receptors; details: earlier lead structures, Fig. 1/Fig. 2; ref Słowiński et al. 2011, 2013; Stefanowicz et al. 2016; cited from earlier work
dopamine D2 receptors [11] = target: T3, dopamine D2 receptors; set-up: method as in Słowiński et al. 2011, 2013; Stefanowicz et al. 2016; details: earlier lead structures, Fig. 1/Fig. 2; ref Słowiński et al. 2011, 2013; Stefanowicz et al. 2016; cited from earlier work
[12] = compound 5 mg/kg i.p. + d-amphetamine 2.5 mg/kg s.c.
[13] = compound 10 mg/kg i.p. + d-amphetamine 2.5 mg/kg s.c.
[14] = 10 mg/kg i.p. 30 min before test
[15] = compound 1.25 mg/kg i.p. 30 min + MK-801 0.2 mg/kg
[16] = compound 2.5 mg/kg i.p. 30 min + MK-801 0.2 mg/kg
[17] = compound 5 mg/kg i.p. 30 min + MK-801 0.2 mg/kg
[18] = 2.5 mg/kg i.p. 30 min before test
[19] = 5 mg/kg i.p. 30 min before test
[20] = rat brain tissues, read-out: 5-HT2A Ki [nM] ± SEM
[21] = rat brain tissues, read-out: 5-HT1A IC50 [nM] ± SEM
[22] = 1.25 mg/kg i.p. 30 min before test

T1 sequence (P14842 whole entry): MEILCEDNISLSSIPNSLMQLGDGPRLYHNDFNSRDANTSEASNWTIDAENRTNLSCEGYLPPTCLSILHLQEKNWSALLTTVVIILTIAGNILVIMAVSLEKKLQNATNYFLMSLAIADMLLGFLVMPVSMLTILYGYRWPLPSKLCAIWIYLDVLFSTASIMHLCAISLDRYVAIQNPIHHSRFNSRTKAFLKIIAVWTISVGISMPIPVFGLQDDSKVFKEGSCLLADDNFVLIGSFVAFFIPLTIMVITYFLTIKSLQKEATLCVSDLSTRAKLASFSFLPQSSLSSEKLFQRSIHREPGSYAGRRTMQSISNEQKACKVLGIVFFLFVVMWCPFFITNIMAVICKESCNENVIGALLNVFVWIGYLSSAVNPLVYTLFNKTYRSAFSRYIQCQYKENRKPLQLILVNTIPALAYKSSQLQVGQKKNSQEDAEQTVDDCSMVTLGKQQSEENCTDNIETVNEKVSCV
T3 sequence (P61169 1-415 isoform P61169-2): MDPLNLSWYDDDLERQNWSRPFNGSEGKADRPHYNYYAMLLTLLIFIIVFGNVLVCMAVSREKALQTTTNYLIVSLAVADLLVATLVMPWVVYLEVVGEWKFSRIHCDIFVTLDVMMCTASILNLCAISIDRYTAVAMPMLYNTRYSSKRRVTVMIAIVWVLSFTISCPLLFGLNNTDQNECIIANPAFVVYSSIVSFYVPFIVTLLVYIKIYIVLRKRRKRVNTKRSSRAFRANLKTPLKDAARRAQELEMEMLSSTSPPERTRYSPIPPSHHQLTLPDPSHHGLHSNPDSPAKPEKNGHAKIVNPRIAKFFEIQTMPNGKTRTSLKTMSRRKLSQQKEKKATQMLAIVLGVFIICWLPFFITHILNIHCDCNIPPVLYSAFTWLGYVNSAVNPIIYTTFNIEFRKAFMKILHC

| Compound | Ki [1] [µM] | Number of crossings/60 min Mean ± SEM (CD-1 mice [2]; [12]) | Number of crossings/60 min Mean ± SEM (CD-1 mice [2]; [13]) | Number of crossings/60 min Mean ± SEM (CD-1 mice [3]; [14]) | Number of crossings/60 min Mean ± SEM (CD-1 mice [4]; [15]) | Number of crossings/60 min Mean ± SEM (CD-1 mice [4]; [16]) | Number of crossings/60 min Mean ± SEM (CD-1 mice [4]; [17]) | Number of punished crossings /1 min Mean ± SEM (Albino Swiss mice [5]; [18]) | Number of punished crossings /1 min Mean ± SEM (Albino Swiss mice [5]; [19]) | Number of punished crossings /1 min Mean ± SEM (Albino Swiss mice [5]; [14]) | IC50 ([6]; rat brain tissues) [nM] | Ki [6, 20] [nM] | Ki [7] [µM] | IC50 [7, 21] [nM] | Immobility time (s) Mean ± SEM (Albino Swiss mice [8]; [18]) | melting point [°C] | Ki (dopamine D2 receptors [9]) [nM] | IC50 (dopamine D2 receptors [9]; rat brain tissues) [nM] | Immobility time (s) Mean ± SEM (Albino Swiss mice [8]; [22]) [s] | further results |
| --- | --- | --- | --- | --- | --- | --- | --- | --- | --- | --- | --- | --- | --- | --- | --- | --- | --- | --- | --- | --- |
| O=C(NC1CC2CCC(C1)N2Cc1cccc(Br)c1)c1ccc2ccccc2c1 (stereo not shown) [R = -Br] | 0.106 | – | – | – | – | – | – | – | – | – | – | – | – | – | – | – | – | – | – | – |
| Cc1cccc(CN2C3CCC2CC(NC(=O)c2ccc4ccccc4n2)C3)c1 (stereo not shown) [Compound 12e] | – | 2651.0 ± 512.6; p < 0.01 vs. amph.; ns vs. contr crossings/60 min | 909.9 ± 11.3; p < 0.0001 vs. amph.; ns vs. contr F(4,42) = 10.584; p < 0.0001 crossings/60 min | 1034 ± 255.9 p < 0.05 F(1,18) = 5.4398; p < 0.05 crossings/60 min | 4019.3 ± 341.3; ns, ns crossings/60 min | 5440.1 ± 937.3 ns, ns crossings/60 min | 3580.7 ± 384.9; ns, ns F(5,48) = 2.8885; p < 0.05 crossings/60 min | 3.5 ± 0.3 crossings/1 min | 2.9 ± 0.3 crossings/1 min | 3.8 ± 0.5 F(3,36) = 1.3827; NS crossings/1 min | > 10000 | > 10000 | 0.0553 ± 0.0083 | 166 ± 25 | 172.14 ± 11.6 s | 113.8 to 114.7 | 52.2 ± 3.4 | 260 ± 16.7 | – | Number of crossings/60 min Mean ± SEM (CD-1 mice [2]; compound 2.5 mg/kg i.p. + d-amphetamine 2.5 mg/kg s.c.): 2993.0 ± 301.0; p < 0.01 vs. amph.; ns vs. contr crossings/60 min; decrease of locomotor hyperactivity vs. respective d-amphetamine group (CD-1 mice [2]; doses of 5 and 10 mg/kg i.p.): 60–86%; effect on spontaneous locomotor activity (CD-1 mice [3]; doses used in hyperlocomotor activity tests): did not change the spontaneous locomotor activity; effect on MK-801-induced hyperlocomotor activity (CD-1 mice [4]; 5 mg/kg, tendency to decrease): did not reach a statistically significant level; Number of crossings/60 min Mean ± SEM (CD-1 mice [4]; compound 0.625 mg/kg i.p. 30 min + MK-801 0.2 mg/kg): 4375.1 ± 583.4; ns, ns crossings/60 min; Immobility time (s) Mean ± SEM (Albino Swiss mice [8]; [14]): 183.33 ± 12.3 F(3,30) = 1.2074; NS s |
| Nc1ccccc1CN1C2CCC1CC(NC(=O)c1ccc3ccccc3c1)C2 (stereo not shown) [Compound 19a] | – | 4328.6 ± 1146.8 crossings/60 min | 950.0 ± 411.7; p < 0.01 vs. amph.; ns vs. contr F(3,35) = 5.6910; p < 0.01 crossings/60 min | 491.6 ± 126.5 F(2,26) = 5.3557; p < 0.05 crossings/60 min | 4646.4 ± 675.6; ns, ns crossings/60 min | 3832.0 ± 991.3; ns, ns F(3,33) = 5.2088; p < 0.01 crossings/60 min | 2915.4 ± 580.2; p < 0.001 vs. MK; ns vs. contr F(2,27) = 16.679; p < 0.0001 crossings/60 min | 3.2 ± 0.5 crossings/1 min | 1.1 ± 0.2 crossings/1 min | 3.2 ± 0.5 F(3,33) = 5.6670; p < 0.01 crossings/1 min | 173 ± 19.3 | – | 0.053 ± 0.002 | 159 ± 5.5 | 128.89 ± 12.3 s | 172.7 to 173.3 | 41.5 ± 1.5 | 209 ± 5.5 | 120.00 ± 16.6 | activity in d-amphetamine-induced hyperlocomotor activity test (CD-1 mice [2]; i.p.): active in this test only at a dose of 10 mg/kg i.p.; Number of crossings/60 min Mean ± SEM (CD-1 mice [3]; [18]): 1634.4 ± 511.9 F(2,27) = 0.7417; NS crossings/60 min; Number of crossings/60 min Mean ± SEM (CD-1 mice [3]; [19]): 1480.4 ± 302.3 crossings/60 min; decrease of spontaneous locomotor activity (CD-1 mice [3]; 10 mg/kg): about 70%; effect on MK-801-induced hyperlocomotor activity (CD-1 mice [4]; 5 mg/kg and 10 mg/kg i.p.): significantly reduced; Number of crossings/60 min Mean ± SEM (CD-1 mice [4]; compound 10 mg/kg i.p. 30 min + MK-801 0.2 mg/kg): 808.7 ± 66.3; p < 0.0001 vs. Mk; p < 0.05 vs. contr F(2,20) = 23.813; p < 0.001 crossings/60 min; Ki [6]: 46.8 ± 5.5 nM; decrease of immobility time vs. respective control group (Albino Swiss mice [8]; 5 mg/kg i.p.): about 43%; Immobility time (s) Mean ± SEM (Albino Swiss mice [8]; [19]): 96.56 ± 16.2; p < 0,01 F(3,31) = 4.5279; p < 0.01 s |
| COc1cc(C(=O)NC2CC3CCC(C2)N3Cc2cccc(C)c2)nc2ccccc12 (stereo not shown) [Compound 12h] | – | – | – | – | – | – | – | 5.5 ± 0.5; p < 0.001 crossings/1 min | 2.9 ± 0.3 F(3,36) = 17.202; p < 0.00001 crossings/1 min | – | > 10000 | > 10000 | 0.021 ± 0.002 | – | 185.00 ± 15.0 F(3,30) = 3.5680; p < 0.05 s | 116.1 to 118.3 | – | 2510 ± 271 | 134.78 ± 12.9 | Number of punished crossings /1 min Mean ± SEM (Albino Swiss mice [5]; [22]): 5.3 ± 0.3; p < 0.001 crossings/1 min; increase of punished crossings vs. respective control group (Albino Swiss mice [5]; 1.25 and 2.5 mg/kg i.p.): ~60%; IC50 [7]: 62.8 ± 6.2 nM; Immobility time (s) Mean ± SEM (Albino Swiss mice [8]; 0.625 mg/kg i.p. 30 min before test): 163.29 ± 10.7 s; Ki (dopamine D2 receptors [9]; rat brain tissues, read-out: D2 Ki [nM] ± SEM): 503 ± 54.5 nM |
| O=C(NC1CC2CCC(C1)N2Cc1ccccc1)c1ccc2ccccc2c1 (stereo not shown) [compound A] | 0.0025 | – | – | – | – | – | – | – | – | – | – | – | – | – | – | – | – | – | – | Ki [10]: 0.304 µM; Ki (dopamine D2 receptors [11]): 0.0824 µM |
